The text below walks through data of PMC7179434, “1,2,4-Triazolo[1,5-a]pyrimidines as a Novel Class of Inhibitors of the HIV-1 Reverse Transcriptase-Associated Ribonuclease H Activity” (Molecules, 2020).

“Also recorded” adds a separate entry of the source. Like-named read-outs stand apart in the source and are kept apart here.

One data set relates to HIV-2 (ROD strain). Briefly: Anti-HIV-2 activity in acutely infected MT-4 cells (MTT). In kind it is cell-based.
In another data set the test system is HIV-1 (IIIB strain). Type of data set: cell-based. The conditions noted are these: acutely infected MT-4 cells.
Another data set concerns the target HIV-1 RT-associated RDDP (Human immunodeficiency virus type 1 group M subtype B, UniProt P03366). Briefly: biochemical. Type of data set: biochemical.
For data set [1], the target named is HIV-1 RT-associated RNase H (Human immunodeficiency virus type 1 group M subtype B, UniProt P03366). Briefly: biochemical. In kind it is biochemical.
A further data set relates to HIV-1 RDDP. The arrangement: method as in ref 17-21, 27-29 (per compound as in Figure 1 legend). To be noted: known allosteric RNHIs; 27-29 (per compound as in Figure 1 legend); cited from earlier work.
The target in the next data set is HIV-1 RNase H. The arrangement: method as in ref 17-25, 27-29 (per compound as in Figure 1 legend). To be noted: known allosteric RNHIs; 27-29 (per compound as in Figure 1 legend); cited from earlier work.
A further data set concerns HIV-1 replication. The conditions noted are these: 28 (per compound as in Figure 1 legend); cited from earlier work.
Where [2] appears, read: wt RT, average and standard deviation of three independent experiments in duplicate.

Turning to `CCCCc1ccc(C(=O)Nc2nc3n(n2)C(c2ccccc2)C=C(C)N3)cc1` (stereo not drawn) [Compound 11b], the “anti-HIV-2 (ROD strain) activity” value in the data set with HIV-2 (ROD strain) was “none of the compounds having RNase H inhibition showed anti-HIV activity at concentrations lower than those cytotoxic”. Further, in the data set on HIV-1 (IIIB strain), the “anti-HIV-1 (IIIB strain) activity” value is listed as “none of the compounds having RNase H inhibition showed anti-HIV activity at concentrations lower than those cytotoxic”. The IC50 on HIV-1 RT-associated RDDP was more than 100 µM; in data set [1] it was 13.1 ± 2.2 µM.
Consider `Cc1cc(C)n2nc(NC(=O)c3ccc([N+](=O)[O-])cc3)nc2n1` [Compound 14d, N-(5,7-Dimethyl-[1,2,4]triazolo[1,5-a]pyrimidin-2-yl)-4-nitrobenzamide], for which the melting point lay within 273 to 276 °C. This molecule had an IC50 on HIV-1 RT-associated RDDP of more than 100 µM. The same molecule showed an IC50 in data set [1] of more than 100 µM.
Take `Cc1cc(-c2ccccc2)n2nc(NC(=O)c3ccc([N+](=O)[O-])cc3)nc2n1` [Compound 12d, N-(5-Methyl-7-phenyl-[1,2,4]triazolo[1,5-a]pyrimidin-2-yl)-4-nitrobenzamide]: the melting point fell in the range of 290 to 293 °C. Also, the IC50 on HIV-1 RT-associated RDDP was more than 100 µM. In data set [1], this molecule displayed an IC50 of more than 100 µM.
`N#Cc1ccc(-c2csc(N/N=C3/C(=O)Nc4ccccc43)n2)cc1` [Compound 4]: the IC50 with HIV-1 RDDP was 9.8 µM; on HIV-1 RNase H, 1.3 µM.
Turning to `Cc1cc(-c2ccccc2)n2nc(NC(=O)c3ccccc3F)nc2n1` [Compound 12c, 2-Fluoro-N-(5-methyl-7-phenyl[1,2,4]triazolo[1,5-a]pyrimidin-2-yl)benzamide], the melting point fell in the range of 292 to 302 °C. Further, the IC50 on HIV-1 RT-associated RDDP was more than 100 µM. Further, the IC50 in data set [1] is more than 100 µM.
`CCCCc1ccc(C(=O)Nc2nc3nc(C)cc(C)n3n2)cc1` [Compound 14b, 4-Butyl-N-(5,7-dimethyl-[1,2,4]triazolo[1,5-a]pyrimidin-2-yl)benzamide] yielded a melting point of 175 to 177 °C. The same molecule displayed an IC50 in data set [1] of more than 100 µM. Moreover, in data set [1] (setting [2]), the “HIV-1 RNaseH IC50” value is on record as “complete loss of activity”.
In turn, `Cc1cc(-c2ccccc2)nc2nc(NC(=O)c3ccc(N)cc3)nn12` [Compound 13e, 4-Amino-N-(7-methyl-5-phenyl-[1,2,4]triazolo[1,5-a]pyrimidin-2-yl)benzamide] gave a melting point of 318 to 319 °C. Moreover, the IC50 at HIV-1 RT-associated RDDP was more than 100 µM. In data set [1], this molecule had an IC50 of more than 100 µM.
Turning to `Cc1cc(C)n2nc(NC(=O)c3ccc(O)c(O)c3)nc2n1` [Compound 14g, N-(5,7-Dimethyl-[1,2,4]triazolo[1,5-a]pyrimidin-2-yl)-3,4-dihydroxybenzamide], the melting point was in the range of 299 to 301 °C. At HIV-1 RT-associated RDDP, this molecule yielded an IC50 of more than 100 µM. Further, in data set [1], the IC50 was 6.23 ± 0.01 µM.
In the same order, the values of `Cc1cc(-c2ccccc2)nc2nc(NC(=O)c3ccccc3F)nn12` [Compound 13c, 2-Fluoro-N-(7-methyl-5-phenyl-[1,2,4]triazolo[1,5-a]pyrimidin-2-yl)benzamide] are 165 to 169 °C, more than 100 µM and more than 100 µM.
In the same order, the values of `Cc1cc(-c2ccccc2)n2nc(NC(=O)c3ccc(N)cc3)nc2n1` [Compound 12e, 4-Amino-N-(5-methyl-7-phenyl-[1,2,4]triazolo[1,5-a]pyrimidin-2-yl)benzamide] are 179 to 202 °C, more than 100 µM and more than 100 µM.
In the same order, the values of `Cc1cc(C)n2nc(NC(=O)c3ccc(N)cc3)nc2n1` [Compound 14e, 4-Amino-N-(5,7-dimethyl-[1,2,4]triazolo[1,5-a]pyrimidin-2-yl)benzamide] are 248 to 258 °C, more than 100 µM and more than 100 µM.
Take `O=C(Nc1sc2c(c1C(=O)Nc1ccccn1)CCCCC2)c1ccc(O)c(O)c1` [Compound 8]: the IC50 with HIV-1 RDDP is 20.9 µM; at HIV-1 RNase H it was 0.84 µM. Also, the “EC50 (HIV-1 replication)” value in the data set with HIV-1 replication is reported as “not active”.
On to `Cc1cc(-c2ccccc2)n2nc(C(=O)Nc3ccc(O)c(O)c3)nc2n1` [Compound 18g, N-(3,4-Dihydroxyphenyl)-5-methyl-7-phenyl-[1,2,4]triazolo[1,5-a]pyrimidine-2-carboxamide], for which the melting point is 278 to 281 °C. Besides, the “anti-HIV-2 (ROD strain) activity” value in the data set on HIV-2 (ROD strain) was “none of the compounds having RNase H inhibition showed anti-HIV activity at concentrations lower than those cytotoxic”. The “anti-HIV-1 (IIIB strain) activity” value in the data set on HIV-1 (IIIB strain) is “did not result in anti-HIV-1 activity in cellular context; also recorded: none of the compounds having RNase H inhibition showed anti-HIV activity at concentrations lower than those cytotoxic”. At HIV-1 RT-associated RDDP, the IC50 was more than 100 µM. The same molecule registered an IC50 in data set [1] of 0.41 ± 0.005 µM.
For `Cc1sc2nc(-c3ccc([N+](=O)[O-])cc3)[nH]c(=O)c2c1C` [Compound 6], the IC50 on HIV-1 RNase H is 0.85 µM.
`COc1ccc(C(=O)Nc2nc3nc(C)cc(C)n3n2)cc1OC` [Compound 14f, N-(5,7-Dimethyl-[1,2,4]triazolo[1,5-a]pyrimidin-2-yl)-3,4-dimethoxybenzamide] came in with a melting point of 190 to 194 °C. The same molecule gave an IC50 against HIV-1 RT-associated RDDP of more than 100 µM. The IC50 in data set [1] is more than 100 µM.
Molecule `Cc1cc(-c2ccc(O)c(O)c2)n2nc(NC(=O)c3ccccc3)nc2n1` [Compound 17h, N-(7-(3,4-dihydroxyphenyl)-5-methyl-[1,2,4]triazolo[1,5-a]pyrimidin-2-yl)benzamide] returned a melting point of 260 to 263 °C. Moreover, in the data set on HIV-2 (ROD strain), the “anti-HIV-2 (ROD strain) activity” value is listed as “none of the compounds having RNase H inhibition showed anti-HIV activity at concentrations lower than those cytotoxic”. Also, the “anti-HIV-1 (IIIB strain) activity” value in the data set on HIV-1 (IIIB strain) is listed as “none of the compounds having RNase H inhibition showed anti-HIV activity at concentrations lower than those cytotoxic”. This molecule also gave an IC50 at HIV-1 RT-associated RDDP of more than 100 µM. The molecule also gave an IC50 in data set [1] of 1.13 ± 0.33 µM.
For the molecule `O=C1Nc2ccccc2/C1=N\Nc1nc(-c2ccc(O)c(O)c2)cs1` [Compound 3], the IC50 in the data set with HIV-1 RDDP is 1.4 µM; at HIV-1 RNase H, 2 µM. Moreover, the “EC50 (HIV-1 replication)” value in the data set on HIV-1 replication is on record as “not active”.
`Cc1cc(C)n2nc(NC(=O)c3ccccc3F)nc2n1` [Compound 14c, N-(5,7-Dimethyl-[1,2,4]triazolo[1,5-a]pyrimidin-2-yl)-2-fluorobenzamide] returned a melting point of 195 to 200 °C. The same molecule showed an IC50 at HIV-1 RT-associated RDDP of more than 100 µM. In data set [1], this molecule showed an IC50 of more than 100 µM.
Consider `CCCCCCCC/C=C\CCCCCCCCNC(=O)/C=C/c1ccc(O)c(O)c1` [Compound 10], for which the IC50 in the data set with HIV-1 RDDP is 2.3 µM; on HIV-1 RNase H it was 0.68 µM.
On to `COc1ccc(-c2cc(C)nc3nc(N(C(=O)c4ccccc4)C(=O)c4ccccc4)nn23)cc1OC` [Compound 16hh, N-benzoyl-N-(7-(3,4-dimethoxyphenyl)-5-methyl-[1,2,4]triazolo[1,5-a]pyrimidin-2-yl)benzamide], for which the IC50 is more than 100 µM on HIV-1 RT-associated RDDP and 6.74 ± 0.55 µM in data set [1]. Besides, the “HIV-1 RNaseH IC50” value in data set [1] (setting [2]) is on record as “low micromolar range”.
Take `COc1ccc(C(=O)Nc2nc3nc(-c4ccccc4)cc(C)n3n2)cc1OC` [Compound 13f, 3,4-Dimethoxy-N-(7-methyl-5-phenyl-[1,2,4]triazolo[1,5-a]pyrimidin-2-yl)benzamide]: the melting point lay in the range of 175 to 179 °C. This molecule also returned an IC50 against HIV-1 RT-associated RDDP of more than 100 µM. This molecule also returned an IC50 in data set [1] of more than 100 µM.
Molecule `COc1ccc(C(=O)Nc2nc3nc(C)cc(-c4ccccc4)n3n2)cc1OC` [Compound 12f, 3,4-Dimethoxy-N-(5-methyl-7-phenyl-[1,2,4]triazolo[1,5-a]pyrimidin-2-yl)benzamide] came in with a melting point of 131 to 151 °C. The same molecule came in with an IC50 against HIV-1 RT-associated RDDP of more than 100 µM. The same molecule displayed an IC50 in data set [1] of more than 100 µM.
With `O=C(O)c1ccc(-c2cccc(/C=N/NC(=O)c3ccc(O)c(O)c3)c2)cc1` [Compound 2], the IC50 was more than 50 µM with HIV-1 RDDP and 0.4 µM at HIV-1 RNase H.
Molecule `Cc1cc(-c2ccccc2)nc2nc(NC(=O)c3ccc([N+](=O)[O-])cc3)nn12` [Compound 13d, N-(7-Methyl-5-phenyl-[1,2,4]triazolo[1,5-a]pyrimidin-2-yl)-4-nitrobenzamide] displayed a melting point of 316 to 318 °C. On HIV-1 RT-associated RDDP, the IC50 was more than 100 µM. The molecule further returned an IC50 in data set [1] of 60.1 ± 3.3 µM.
Regarding `CCCCc1ccc(C(=O)Nc2nc3nc(C)cc(-c4ccccc4)n3n2)cc1` [Compound 12b, 4-Butyl-N-(5-methyl-7-phenyl-[1,2,4]triazolo[1,5-a]pyrimidin-2-yl)benzamide], the melting point was in the range of 157 to 158 °C. This molecule also had an IC50 at HIV-1 RT-associated RDDP of more than 100 µM. The molecule further displayed an IC50 in data set [1] of 12.3 ± 1.5 µM.
Regarding `CCOC(=O)C(=O)CC(=O)C=Cc1cccn1Cc1ccc(F)cc1` [RDS1643, reference compound], the IC50 in data set [1] (wt RT, average and standard deviation of three independent experiments in duplicate, read-out: HIV-1 RNaseH IC50) is 9 ± 2 µM.
Turning to `Cc1cc(-c2ccccc2)nc2nc(C(=O)Nc3ccc(O)c(O)c3)nn12` [Compound 19g, N-(3,4-Dihydroxyphenyl)-7-methyl-5-phenyl-[1,2,4]triazolo[1,5-a]pyrimidine-2-carboxamide], the melting point was 247 to 250 °C. Moreover, the IC50 in data set [1] amounted to 43.1 ± 2.1 µM. Moreover, the “HIV-1 RNaseH IC50” value in data set [1] (setting [2]) is reported as “markedly decreased anti-RNase H activity”.
In the case of `CCCCOc1ccc(C(=O)Nc2nc3n(n2)C(c2ccccc2)C=C(C)N3)cc1` (stereo not drawn) [Compound 11a], the IC50 against HIV-1 RT-associated RDDP was more than 100 µM; in data set [1], 17.7 ± 2.7 µM.
As to `O=c1oc(-c2ccc(O)c(O)c2)nc2sc3ccccc3c12` [Compound 9], the IC50 in the data set on HIV-1 RDDP is 2.9 µM; on HIV-1 RNase H, 0.53 µM. Further, the “EC50 (HIV-1 replication)” value with HIV-1 replication is reported as “not active”.

The term IC50 denotes the midpoint of a concentration-inhibition curve. As a reminder, the melting point is the temperature, or range, at which the solid turns liquid.
